Experimental data as given in patent EP0743938B1, “SUBSTITUTED SPIRO COMPOUNDS FOR THE TREATMENT OF INFLAMMATION” (G.D. SEARLE & CO., priority 1994, dated 1995).

Key:
Male Sprague-Dawley rats [1] = experiment: Rat Carrageenan Foot Pad Edema Test; assay type: in vivo; conditions: po, 3 h, rats dosed orally, 10mg/kg body weight, one hour before carrageenan, foot volume three hours after carrageenan, read-out: RAT PAW EDEMA % Inhibition @ 10mg/kg body weight
Description: Male Sprague-Dawley rats were selected in each group so that the average body weight was as close as possible. Rats were fasted with free access to water for over sixteen hours prior to the test. The rats were dosed orally (1 mL) with compounds suspended in vehicle containing 0.5% methylcellulose and .025% surfactant, or with vehicle alone. One hour later a subplantar injection of 0.1 mL of 1% solution of carrageenan/sterile 0.9% saline was administered and the volume of the injected foot was measured with a displacement plethysmometer connected to a pressure transducer with a digital indicator. Three hours after the injection of the carrageenan, the volume of the foot was again measured.

Male Sprague-Dawley rats [2] = experiment: Rat Carrageenan-induced Analgesia Test; assay type: in vivo; conditions: po, 3 h, read-out: ANALGESIA % Inhibition @ 10mg/kg body weight, rats dosed orally, hyperalgesic foot withdrawal, thermal stimulation three hours after carrageenan
COX-1 = COX-1 (Homo sapiens, UniProt P23219); conditions: read-out: COX I ID50 µM
Sequence of COX-1 (P23219 24-599): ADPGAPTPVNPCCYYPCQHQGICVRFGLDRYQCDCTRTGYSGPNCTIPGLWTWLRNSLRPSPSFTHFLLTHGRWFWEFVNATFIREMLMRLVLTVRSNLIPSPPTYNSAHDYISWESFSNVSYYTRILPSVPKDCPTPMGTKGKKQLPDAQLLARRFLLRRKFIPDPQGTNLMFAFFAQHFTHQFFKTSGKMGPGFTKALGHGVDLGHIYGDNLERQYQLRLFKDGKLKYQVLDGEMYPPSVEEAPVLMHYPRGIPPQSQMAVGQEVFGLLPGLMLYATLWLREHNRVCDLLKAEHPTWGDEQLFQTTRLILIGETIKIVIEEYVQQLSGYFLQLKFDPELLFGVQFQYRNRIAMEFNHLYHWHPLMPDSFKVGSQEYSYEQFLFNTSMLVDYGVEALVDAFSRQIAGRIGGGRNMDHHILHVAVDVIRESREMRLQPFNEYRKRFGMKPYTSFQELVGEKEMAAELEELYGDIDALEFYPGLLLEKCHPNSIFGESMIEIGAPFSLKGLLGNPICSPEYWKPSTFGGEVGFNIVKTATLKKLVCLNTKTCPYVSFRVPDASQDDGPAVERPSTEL

| Structure (SMILES) | inhibition in vivo at 10 mg/kg (Male Sprague-Dawley rats [1]) | inhibition in vivo at 10 mg/kg (Male Sprague-Dawley rats [2]) | IC50 (COX-1) |
| --- | --- | --- | --- |
| NS(=O)(=O)c1ccc(C2=C(c3ccc(Cl)c(Cl)c3)CC3(CC3)C2)cc1 [Example 29, 4-[6-(3,4-Dichlorophenyl)spiro[2.4]hept-5-en-5-yl]benzenesulfonamide] | 24% | 29% | – |
| NS(=O)(=O)c1ccc(C2=C(c3ccc(F)cc3)CC3(CC3)C2)cc1 [Example 2, 4-[6-(4-Fluorophenyl)spiro[2.4]hept-5-en-5-yl]benzenesulfonamide] | 57% | 34% | – |
| NS(=O)(=O)c1ccc(C2=C(c3ccc(F)cc3)CC3(CCC3)C2)cc1 [Example 4, 4-[7-(4-Fluorophenyl)spiro[3.4]oct-6-en-6-yl]benzenesulfonamide] | 17% | – | – |
| CS(=O)(=O)c1ccc(C2=C(c3ccc(F)cc3)CC3(CCC3)C2)cc1 [Example 3, 6-(4-Fluorophenyl)-7-[4-(methylsulfonyl)phenyl]spiro[3.4]oct-6-ene] | 24% | – | – |
| COc1ccc(C2=C(c3ccc(S(C)(=O)=O)cc3)CC3(CC3)C2)cc1Br [Example 16, 5-(3-Bromo-4-methoxyphenyl)-6-[4-(methylsulfonyl)phenyl]spiro[2.4]hept-5-ene] | 6% | – | – |
| COc1ccc(C2=C(c3ccc(S(N)(=O)=O)cc3)CC3(CC3)C2)cc1F [Example 9, 4-[6-(3-Fluoro-4-methoxyphenyl)spiro[2.4]hept-5-en-5-yl]benzenesulfonamide] | 15% | 17% | – |
| CS(=O)(=O)c1ccc(C2=C(c3ccc(Cl)c(Cl)c3)CC3(CC3)C2)cc1 [Example 27, 5-(3,4-Dichlorophenyl)-6-[4-(methylsulfonyl)phenyl]spiro[2.4]hept-5-ene] | 15% | – | – |
| CS(=O)(=O)c1ccc(C2=C(c3ccc(F)cc3)CC3(CC3)C2)cc1 [Example 1, 5-(4-Fluorophenyl)-6-[4-(methylsulfonyl)phenyl]spiro[2.4]hept-5-ene] | 32% | 15% | – |
| CS(=O)(=O)c1ccc(C2=C(c3ccc(C(F)(F)F)cc3)CC3(CC3)C2)cc1 [Example 19, 6-[4-(Methylsulfonyl)phenyl)-5-(4-trifluoromethylphenyl)spiro[2.4]hept-5-ene] | 11% | 9% | – |
| COc1ccc(C2=C(c3ccc(S(C)(=O)=O)cc3)CC3(CC3)C2)cc1F [Example 8, 5-(3-Fluoro-4-methoxyphenyl)-6-[4-(methylsulfonyl)phenyl]spiro[2.4]hept-5-ene] | 15% | 8% | – |
| CS(=O)(=O)c1ccc(C2=C(c3ccc(OC(F)(F)F)cc3)CC3(CC3)C2)cc1 [Example 14, 6-[4-(Methylsulfonyl)phenyl]-5-(4-trifluoromethoxyphenyl)spiro[2.4]hept-5-ene] | 18% | – | – |
| NS(=O)(=O)c1ccc(C2=C(c3ccc(C(F)(F)F)cc3)CC3(CC3)C2)cc1 [Example 25, 4-[6-(4-Trifluoromethylphenyl)spiro[2.4]hept-5-en-5-yl]benzenesulfonamide] | 34% | 22% | – |
| COc1ccc(C2=C(c3ccc(S(C)(=O)=O)cc3)CC3(CC3)C2)cc1Cl [Example 6, 5-(3-Chloro-4-methoxyphenyl)-6-[4-(methylsulfonyl)phenyl)spiro[2.4]hept-5-ene] | 21% | 7% | – |
| CS(=O)(=O)c1ccc(C2=C(c3ccc(F)c(Cl)c3)CC3(CC3)C2)cc1 [Example 22, 5-(3-Chloro-4-fluorophenyl)-6-[4-(methylsulfonyl)phenyl]spiro[2.4]hept-5-ene] | 21% | 10% | 6 µM |
| COc1c(Cl)cc(C2=C(c3ccc(S(C)(=O)=O)cc3)CC3(CC3)C2)cc1Cl [Example 20, 5-(3,5-Dichloro-4-methoxyphenyl)-6-[4-(methylsulfonyl)phenyl]spiro[2.4]hept-5-ene] | 24% | 28% | – |
| COc1ccc(C2=C(c3ccc(S(N)(=O)=O)cc3)CC3(CC3)C2)cc1Cl [Example 7, 4-[6-(3-Chloro-4-methoxyphenyl)spiro[2.4]hept-5-en-5-yl]benzenesulfonamide] | 20% | 18% | – |
